Earlier results, collected in patent publication US5482960A, “Nonpeptide endothelin antagonists” (Warner-Lambert Company, priority 1994, dated 1996).
Where a SMILES comes first, the peptide text is derived from it. [ ]: non-standard residue; d: D form.

Assays:
ETA [1] = settings: oral; cited from earlier work
ET receptor = settings: allergic sheep; cited from earlier work
ETA [2] = settings: mouse model of endotoxic shock; cited from earlier work
ETA [3] = settings: following subarachnoid hemorrhage; cited from earlier work
endothelin = settings: rats; cited from earlier work
liver = settings: cited from earlier work
small intestinal mucosa = settings: local intra-arterial, rats; cited from earlier work

Q: Which antihypertensive effect (ETA [1]) does the source give for `Cc1noc(NS(=O)(=O)c2cccc3c(N(C)C)cccc23)c1C` [5-(Dimethylamino)-N-(3,4-dimethyl-5-isoxazolyl)-1-naphthalenesulfonamide] here?
A: demonstrated an oral antihypertensive effect

Q: For `CC(C)C[C@@H]1NC(=O)[C@@H](C(C)C)NC(=O)[C@@H]2CCCN2C(=O)[C@@H](CC(=O)O)NC(=O)[C@@H](Cc2c[nH]c3ccccc23)NC1=O` [BQ-123] (cyclo(L[dW][dD]P[dV])), which “block of ET-1 induced bronchoconstriction and tracheal smooth muscle contraction” value (ET receptor) is on record?
A: block ET-1 induced bronchoconstriction and tracheal smooth muscle contraction

Q: And the survival rate (ETA [2])?
A: significantly increased the survival rate

Q: What about the early cerebral vasospasm (ETA [3]) of the same compound?
A: prevent early cerebral vasospasm following subarachnoid hemorrhage

Q: For `COc1cccc(Oc2c(NS(=O)(=O)c3ccc(C(C)(C)C)cc3)ncnc2OCCO)c1` [RO 46-2005], which “efficacy in models of acute renal ischemia and subarachnoid hemorrhage” value (endothelin) is on record?
A: effective in models of acute renal ischemia and subarachnoid hemorrhage in rats

Q: With endothelin as the compound, how does the “vasoconstriction of the hepatic vasculature and hepatic glucose output” value (liver) read?
A: sustained vasoconstriction of the hepatic vasculature and a significant increase in hepatic glucose output

Q: And the “small intestinal mucosal damage” value (small intestinal mucosa)?
A: induce small intestinal mucosal damage in rats in a dose-dependent manner
